From US6582718B2, “Cyclosporin compositions” (Novartis AG, priority 1992, dated 2003)

Assay: Irritation of the eyes by surfactants used in eye-drops
From the text: In an attempt to solve these problems, studies have been conducted with various surfactants which are currently used for formulating medical substances with low solubility in water, especially the most commonly used surfactants polysorbate 80 and polyoxyethylene hydrogenated castor oil.

Substance: Polyoxyethylene hydrogenated castor oil
- irritation of the eyes: strongly irritate the eyes
